Results as given in patent publication US5401514A, “Solid, fast-soluble pharmaceutical preparation containing S-(carboxymethyl)-L-cysteine and/or N-acetylcysteine” (Spirig AG, Pharmazeutische Praeparate, priority 1990, dated 1995).

Key:
[1] = Comparative bioavailability test in 10 subjects, plasma N-acetylcysteine by HPLC (tributyl phosphine reduction, o-phthalaldehyde post-column derivatization), oral 200 mg
Description: A process for quantitative determination of N-acetylcysteine in plasma was used, which split the active ingredient with tributyl phosphine reductively and derivatized in with a post-HPLC column using o-phthalaldehyde.
The comparative test is documented in Biopharmaceutics & Drug Disposition, Vol. 12, 343-353 (1991).

[2] = background knowledge; cited from earlier work

Row | SMILES | endogenous average concentrations in plasma ([1]; human, in vivo) | Cmax relative to endogenous plasma values ([1]; one 200 mg dose, oral, up to) | main effect [2] | tolerability [2]
1 | CC(=O)N[C@@H](CS)C(=O)O [N-acetylcysteine] | 0.08 µM | up to 20 times | expectorant | very well tolerated
2 | N[C@@H](CSCC(=O)O)C(=O)O [carbocysteine, S-(carboxymethyl)-L-cysteine] |  |  | expectorant | very well tolerated
